In patent US4731451A, “N-((2-oxo-3(2H)benzothiazolyl)methyl)-2-chloroacetanilides” (Monsanto Company, priority 1980, dated 1988):

Experiments:
Type in all cases: in vivo
Barnyardgrass [1] = assay: Pre-emergent herbicidal activity (Table II); conditions: 2-3 weeks
Description: (§1) The pre-emergence tests are conducted as follows:
(§2) A good grade of top soil is placed in aluminum pans and compacted to a depth of three-eighths to one-half inch from the top of the pan. On the top of the soil is placed a predetermined number of seeds or vegetative propagules of various plant species. The soil required to level fill the pans after seeding or adding vegetative propagules is weighed into a pan. A known amount of the active ingredient applied in a solvent or as a wettable powder suspension and the soil are thoroughly mixed, and used as a cover layer for prepared pans. After treatment, the pans are moved into a greenhouse bench where they are watered from below as needed to give adequate moisture for germination and growth.
(§3) Approximately 2-3 weeks after seeding and treating, the plants are observed and the results recorded. The herbicidal rating is obtained by means of fixed scale based on the percent injury of each plant species. The ratings are defined as follows: […]
(§4) The plant species utilized in one set of tests, the data for which are shown in Table II, are identified by letter in accordance with the following legend: […]

Canada Thistle = assay: Pre-emergent herbicidal activity (Table II); conditions: 2-3 weeks
Description: as §1, §2, §3, §4

Cocklebur [2] = assay: Pre-emergent herbicidal activity (Table II); conditions: 2-3 weeks
Description: as §1, §2, §3, §4

Downy Brome [3] = assay: Pre-emergent herbicidal activity (Table II); conditions: 2-3 weeks
Description: as §1, §2, §3, §4

Johnsongrass = assay: Pre-emergent herbicidal activity (Table II); conditions: 2-3 weeks
Description: as §1, §2, §3, §4

Lambsquarters [4] = assay: Pre-emergent herbicidal activity (Table II); conditions: 2-3 weeks
Description: as §1, §2, §3, §4

Morningglory [5] = assay: Pre-emergent herbicidal activity (Table II); conditions: 2-3 weeks
Description: as §1, §2, §3, §4

Quackgrass = assay: Pre-emergent herbicidal activity (Table II); conditions: 2-3 weeks
Description: as §1, §2, §3, §4

Smartweed [6] = assay: Pre-emergent herbicidal activity (Table II); conditions: 2-3 weeks
Description: as §1, §2, §3, §4

Velvetleaf [7] = assay: Pre-emergent herbicidal activity (Table II); conditions: 2-3 weeks
Description: as §1, §2, §3, §4

Yellow Nutsedge = assay: Pre-emergent herbicidal activity (Table II); conditions: 2-3 weeks
Description: as §1, §2, §3, §4

Barnyardgrass [8] = assay: Pre-emergent herbicidal activity (Table III)
Description: as §1, §2, §3
(§5) The compounds were further tested by utilizing the above procedure on the following plant species: […]

Cocklebur [9] = assay: Pre-emergent herbicidal activity (Table III)
Description: as §1, §2, §3, §5

Crabgrass = assay: Pre-emergent herbicidal activity (Table III)
Description: as §1, §2, §3, §5

Downy Brome [10] = assay: Pre-emergent herbicidal activity (Table III)
Description: as §1, §2, §3, §5

Hemp Sesbania = assay: Pre-emergent herbicidal activity (Table III)
Description: as §1, §2, §3, §5

Lambsquarters [11] = assay: Pre-emergent herbicidal activity (Table III)
Description: as §1, §2, §3, §5

Morningglory [12] = assay: Pre-emergent herbicidal activity (Table III)
Description: as §1, §2, §3, §5

Panicum = assay: Pre-emergent herbicidal activity (Table III)
Description: as §1, §2, §3, §5

Rice = assay: Pre-emergent herbicidal activity (Table III)
Description: as §1, §2, §3, §5

Smartweed [13] = assay: Pre-emergent herbicidal activity (Table III)
Description: as §1, §2, §3, §5

Sorghum = assay: Pre-emergent herbicidal activity (Table III)
Description: as §1, §2, §3, §5

Soybean = assay: Pre-emergent herbicidal activity (Table III)
Description: as §1, §2, §3, §5

Sugarbeet = assay: Pre-emergent herbicidal activity (Table III)
Description: as §1, §2, §3, §5

Velvetleaf [14] = assay: Pre-emergent herbicidal activity (Table III)
Description: as §1, §2, §3, §5

Wheat = assay: Pre-emergent herbicidal activity (Table III)
Description: as §1, §2, §3, §5

Wild Buckwheat = assay: Pre-emergent herbicidal activity (Table III)
Description: as §1, §2, §3, §5
Note: ranges in brackets are in %.

CC1=C(N(Cn2c(=O)sc3ccccc32)C(=O)CCl)CCCC1 [Example 10, N--[(2-oxo-3(2H)--benzothiazolyl)methyl]-N--(2-methyl-1-cyclohexen-1-yl)-2-chloro-amide]
Herbicidal rating (Barnyardgrass [1]; 5.6 kg/ha): 3 (75-100)
Herbicidal rating (Barnyardgrass [1]; 11.2 kg/ha): 3 (75-100)
Herbicidal rating (Canada Thistle; 5.6 kg/ha): 0 (0-24)
Herbicidal rating (Canada Thistle; 11.2 kg/ha): 0 (0-24)
Herbicidal rating (Cocklebur [2]; 5.6 kg/ha): 0 (0-24)
Herbicidal rating (Cocklebur [2]; 11.2 kg/ha): 0 (0-24)
Herbicidal rating (Downy Brome [3]; 5.6 kg/ha): 3 (75-100)
Herbicidal rating (Downy Brome [3]; 11.2 kg/ha): 3 (75-100)
Herbicidal rating (Johnsongrass; 5.6 kg/ha): 0 (0-24)
Herbicidal rating (Johnsongrass; 11.2 kg/ha): 0 (0-24)
Herbicidal rating (Lambsquarters [4]; 5.6 kg/ha): 0 (0-24)
Herbicidal rating (Lambsquarters [4]; 11.2 kg/ha): 0 (0-24)
Herbicidal rating (Morningglory [5]; 5.6 kg/ha): 3 (75-100)
Herbicidal rating (Morningglory [5]; 11.2 kg/ha): 1 (25-49)
Herbicidal rating (Quackgrass; 5.6 kg/ha): 3 (75-100)
Herbicidal rating (Quackgrass; 11.2 kg/ha): 0 (0-24)
Herbicidal rating (Smartweed [6]; 5.6 kg/ha): 0 (0-24)
Herbicidal rating (Smartweed [6]; 11.2 kg/ha): 0 (0-24)
Herbicidal rating (Velvetleaf [7]; 5.6 kg/ha): 0 (0-24)
Herbicidal rating (Velvetleaf [7]; 11.2 kg/ha): 0 (0-24)
Herbicidal rating (Yellow Nutsedge; 5.6 kg/ha): 1 (25-49)
Herbicidal rating (Yellow Nutsedge; 11.2 kg/ha): 1 (25-49)
Herbicidal rating (Barnyardgrass [8]; 0.056 kg/ha): 3 (75-100)
Herbicidal rating (Barnyardgrass [8]; 0.28 kg/ha): 3 (75-100)
Herbicidal rating (Barnyardgrass [8]; 1.12 kg/ha): 2 (50-74)
Herbicidal rating (Barnyardgrass [8]; 5.6 kg/ha): 3 (75-100)
Herbicidal rating (Cocklebur [9]; 0.056 kg/ha): 0 (0-24)
Herbicidal rating (Cocklebur [9]; 0.28 kg/ha): 0 (0-24)
Herbicidal rating (Cocklebur [9]; 1.12 kg/ha): 0 (0-24)
Herbicidal rating (Cocklebur [9]; 5.6 kg/ha): 0 (0-24)
Herbicidal rating (Crabgrass; 0.056 kg/ha): 3 (75-100)
Herbicidal rating (Crabgrass; 0.28 kg/ha): 3 (75-100)
Herbicidal rating (Crabgrass; 1.12 kg/ha): 3 (75-100)
Herbicidal rating (Crabgrass; 5.6 kg/ha): 3 (75-100)
Herbicidal rating (Downy Brome [10]; 0.056 kg/ha): 0 (0-24)
Herbicidal rating (Downy Brome [10]; 0.28 kg/ha): 0 (0-24)
Herbicidal rating (Downy Brome [10]; 1.12 kg/ha): 0 (0-24)
Herbicidal rating (Downy Brome [10]; 5.6 kg/ha): 2 (50-74)
Herbicidal rating (Hemp Sesbania; 0.056 kg/ha): 0 (0-24)
Herbicidal rating (Hemp Sesbania; 0.28 kg/ha): 0 (0-24)
Herbicidal rating (Hemp Sesbania; 1.12 kg/ha): 0 (0-24)
Herbicidal rating (Hemp Sesbania; 5.6 kg/ha): 0 (0-24)
Herbicidal rating (Lambsquarters [11]; 0.056 kg/ha): 1 (25-49)
Herbicidal rating (Lambsquarters [11]; 0.28 kg/ha): 0 (0-24)
Herbicidal rating (Lambsquarters [11]; 1.12 kg/ha): 1 (25-49)
Herbicidal rating (Lambsquarters [11]; 5.6 kg/ha): 3 (75-100)
Herbicidal rating (Morningglory [12]; 0.056 kg/ha): 0 (0-24)
Herbicidal rating (Morningglory [12]; 0.28 kg/ha): 0 (0-24)
Herbicidal rating (Morningglory [12]; 1.12 kg/ha): 0 (0-24)
Herbicidal rating (Morningglory [12]; 5.6 kg/ha): 0 (0-24)
Herbicidal rating (Panicum; 0.056 kg/ha): 0 (0-24)
Herbicidal rating (Panicum; 0.28 kg/ha): 0 (0-24)
Herbicidal rating (Panicum; 1.12 kg/ha): 0 (0-24)
Herbicidal rating (Panicum; 5.6 kg/ha): 2 (50-74)
Herbicidal rating (Rice; 0.056 kg/ha): 0 (0-24)
Herbicidal rating (Rice; 0.28 kg/ha): 0 (0-24)
Herbicidal rating (Rice; 1.12 kg/ha): 0 (0-24)
Herbicidal rating (Rice; 5.6 kg/ha): 3 (75-100)
Herbicidal rating (Smartweed [13]; 0.056 kg/ha): 0 (0-24)
Herbicidal rating (Smartweed [13]; 0.28 kg/ha): 0 (0-24)
Herbicidal rating (Smartweed [13]; 1.12 kg/ha): 1 (25-49)
Herbicidal rating (Smartweed [13]; 5.6 kg/ha): 2 (50-74)
Herbicidal rating (Sorghum; 0.056 kg/ha): 0 (0-24)
Herbicidal rating (Sorghum; 0.28 kg/ha): 0 (0-24)
Herbicidal rating (Sorghum; 1.12 kg/ha): 0 (0-24)
Herbicidal rating (Sorghum; 5.6 kg/ha): 0 (0-24)
Herbicidal rating (Soybean; 0.056 kg/ha): 0 (0-24)
Herbicidal rating (Soybean; 0.28 kg/ha): 0 (0-24)
Herbicidal rating (Soybean; 1.12 kg/ha): 0 (0-24)
Herbicidal rating (Soybean; 5.6 kg/ha): 0 (0-24)
Herbicidal rating (Sugarbeet; 0.056 kg/ha): 0 (0-24)
Herbicidal rating (Sugarbeet; 0.28 kg/ha): 0 (0-24)
Herbicidal rating (Sugarbeet; 1.12 kg/ha): 0 (0-24)
Herbicidal rating (Sugarbeet; 5.6 kg/ha): 0 (0-24)
Herbicidal rating (Velvetleaf [14]; 0.056 kg/ha): 0 (0-24)
Herbicidal rating (Velvetleaf [14]; 0.28 kg/ha): 0 (0-24)
Herbicidal rating (Velvetleaf [14]; 1.12 kg/ha): 0 (0-24)
Herbicidal rating (Velvetleaf [14]; 5.6 kg/ha): 0 (0-24)
Herbicidal rating (Wheat; 0.056 kg/ha): 0 (0-24)
Herbicidal rating (Wheat; 0.28 kg/ha): 0 (0-24)
Herbicidal rating (Wheat; 1.12 kg/ha): 0 (0-24)
Herbicidal rating (Wheat; 5.6 kg/ha): 1 (25-49)
Herbicidal rating (Wild Buckwheat; 0.056 kg/ha): 0 (0-24)
Herbicidal rating (Wild Buckwheat; 0.28 kg/ha): 0 (0-24)
Herbicidal rating (Wild Buckwheat; 1.12 kg/ha): 0 (0-24)
Herbicidal rating (Wild Buckwheat; 5.6 kg/ha): 0 (0-24)
